How the values were obtained:
T25E M^pro = format: biochemical, SARS-CoV-2
M49L M^pro = format: biochemical, SARS-CoV-2

Compound	increase of Ki compared to wild-type (T25E M^pro)	increase of Ki compared to wild-type (M49L M^pro)
Cn1cnc(Cn2c(=O)[nH]/c(=N\c3cc4cn(C)nc4cc3Cl)n(Cc3cc(F)c(F)cc3F)c2=O)n1 [ensitrelvir]	300 fold	40 fold
CC(C)(C)[C@H](NC(=O)C(F)(F)F)C(=O)N1C[C@H]2[C@@H]([C@H]1C(=O)N[C@H](C#N)C[C@@H]1CCNC1=O)C2(C)C [nirmatrelvir]	minimal to no observed impact on Ki	minimal to no observed impact on Ki

From PMC11161032 (ACS infectious diseases, 2023)
